In patent publication US8536342B2, “Process for producing thiabenzoazulene-propionic acid derivative” (Nippon Zoki Pharmaceutical Co., Ltd., priority 2009, dated 2013):

How the values were obtained:
[1] = molecular target: T1, intracerebral receptor (Mus musculus, UniProt P70174); experiment: intracerebral receptor binding test by oral administration to mice; type: in vivo
T1 construct: from tissue; host or cells: mouse brain

[2] = molecular target: histamine H1 receptor (Homo sapiens, UniProt P35367); experiment: antagonistic action to histamine H1 receptor
Chain of histamine H1 receptor (P35367 whole entry, species assumed): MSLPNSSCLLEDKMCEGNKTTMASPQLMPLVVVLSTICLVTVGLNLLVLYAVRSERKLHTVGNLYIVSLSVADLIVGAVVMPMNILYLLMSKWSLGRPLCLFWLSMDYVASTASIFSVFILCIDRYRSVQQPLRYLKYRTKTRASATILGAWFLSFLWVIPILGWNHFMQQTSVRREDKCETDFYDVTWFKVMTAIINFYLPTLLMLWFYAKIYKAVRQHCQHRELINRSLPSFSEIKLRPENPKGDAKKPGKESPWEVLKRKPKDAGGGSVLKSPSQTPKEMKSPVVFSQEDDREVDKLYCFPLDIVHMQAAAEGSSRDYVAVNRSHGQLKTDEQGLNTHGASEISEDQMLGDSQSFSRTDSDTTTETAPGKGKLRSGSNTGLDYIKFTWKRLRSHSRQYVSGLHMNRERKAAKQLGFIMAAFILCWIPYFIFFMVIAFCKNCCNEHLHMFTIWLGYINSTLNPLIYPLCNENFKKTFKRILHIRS

T1 sequence (P70174 whole entry): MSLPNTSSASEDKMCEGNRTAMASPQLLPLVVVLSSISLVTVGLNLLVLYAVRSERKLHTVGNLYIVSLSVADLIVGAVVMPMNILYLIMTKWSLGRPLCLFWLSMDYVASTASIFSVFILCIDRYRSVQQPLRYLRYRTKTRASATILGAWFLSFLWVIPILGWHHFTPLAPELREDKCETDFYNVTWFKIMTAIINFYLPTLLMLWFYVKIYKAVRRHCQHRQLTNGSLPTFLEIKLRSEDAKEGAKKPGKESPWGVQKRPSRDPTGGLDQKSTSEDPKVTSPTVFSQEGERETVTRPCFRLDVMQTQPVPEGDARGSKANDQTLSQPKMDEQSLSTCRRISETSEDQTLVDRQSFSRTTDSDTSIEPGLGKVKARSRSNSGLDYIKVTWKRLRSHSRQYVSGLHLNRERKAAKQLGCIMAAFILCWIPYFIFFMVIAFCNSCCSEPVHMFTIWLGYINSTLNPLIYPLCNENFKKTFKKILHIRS

Row | melting point | Compound | other results
1 | 110 to 113 °C | CCOC(=O)N1CCC(=C2c3ccccc3CCc3sccc32)CC1 [Compound 1, ethyl 4-(9,10-dihydro-1-thiabenzo[f]-azulen-4-ylidene)piperidine-1-carboxylate] | –
2 | 228 °C (dec.) | CCOC(=O)N1CCC(=C2c3ccccc3CCc3sc(C=CC(=O)O)cc32)CC1 [Compound 3, 3-[4-(1-ethoxycarbonylpiperidin-4-ylidene)-9,10-dihydro-4H-1-thiabenzo[f]azulen-2-yl]acrylic acid] | –
3 | 146 to 149 °C | CCOC(=O)N1CCC(=C2c3ccccc3CCc3sc(C=O)cc32)CC1 [Compound 2, ethyl 4-(2-formyl-9,10-dihydro-1-thia-benzo[f]azulen-4-ylidene)piperidine-1-carboxylate] | –
4 | 141 to 142 °C | CN1CCC(=C2c3ccccc3CCc3sc(Br)cc32)CC1 [Compound 11, 4-(2-bromo-9,10-dihydro-1-thiabenzo[f]-azulen-4-ylidene)-1-methylpiperidine] | –
5 | 90 to 93 °C | CCOC(=O)C=Cc1cc2c(s1)CCc1ccccc1C2=C1CCN(C(=O)OCC)CC1 [Compound 8, ethyl 4-[2-(2-ethoxycarbonylvinyl)-9,10-dihydro-1-thiabenzo[f]azulen-4-ylidene]piperidine-1-carboxylate] | –
6 | 254 °C (dec.) | O=C(O)CCc1cc2c(s1)C=Cc1ccccc1C2=C1CCNCC1 [Compound 5, 3-(4-piperidin-4-ylidene-4H-1-thiabenzo-[f]azulen-2-yl)propionic acid] | intracerebral transmigration [1]: low intracerebral transmigration; antagonistic action to histamine H1 receptor [2]: excellent antagonistic action; antihistaminic action [2]: excellent antihistaminic action
7 | 269 to 272 °C (dec.) | O=C(O)C=Cc1cc2c(s1)CCc1ccccc1C2=C1CCNCC1 [Compound 4, 3-(4-piperidin-4-ylidene-9,10-dihydro-4H-1-thiabenzo[f]azulen-2-yl)acrylic acid] | –

Row | Compound | melting point | other results
8 | CC(C)(C)OC(=O)N1CCC(=C2c3ccccc3C=Cc3sc(CCC(=O)O)cc32)CC1 [Compound 7, 3-[4-(1-tert-butoxycarbonylpiperidin-4-ylidene)-4H-1-thiabenzo[f]azulen-2-yl]propionic acid] | 172 °C (dec.) | –
9 | CC(C)(C)OC(=O)N1CCC(=C2c3ccccc3CCc3sc(C=CC(=O)O)cc32)CC1 [Compound 6, 3-[4-(1-tert-butoxycarbonylpiperidin-4-ylidene)-9,10-dihydro-4H-1-thiabenzo[f]azulen-2-yl]acrylic acid] | 186 °C (dec.) | –
